By IC50 is commonly meant the point on the concentration scale where inhibition reaches its midpoint.

Active and inactive are the calls of the source. The rule behind the calls is not given here. Some results are limits rather than exact numbers.

Series [1] concerns A549. Kind of series: Cytotoxicity against human A549 cells assessed as reduction in cell viability after 72 hrs by MTT assay. The settings on record: A549, 72 h. The format is functional, cell-based. In general terms: Tetrazolium dyes change colour on reduction, which living cells bring about.
For series [2], the system named is A549. Kind of series: Induction of apoptosis in human A549 cells assessed as increase in apoptotic cells up to 40 uM incubated for 24 hrs by Annexin V-FITC/propidium iodide staining based flow cytometry. The format is functional, cell-based.
Series [3] relates to A549. Kind of series: Induction of apoptosis in human A549 cells assessed as caspase-3 p17/19 active fragment generation at 80 uM after 24 hrs by Western blot analysis. It counts as functional, cell-based.
The test system of series [4] is A549. Kind of series: Induction of apoptosis in human A549 cells assessed as necrotic cells up to 80 uM incubated for 24 hrs by Annexin V-FITC/propidium iodide staining based flow cytometry. The format is functional, cell-based. (In general: Flow cytometry measures light scatter and fluorescence of single cells or particles in a stream.)
Series [5] has as its system A549. Kind of series: Induction of apoptosis in human A549 cells assessed as increase in apoptotic cells at 80 uM incubated for 24 hrs by Annexin V-FITC/propidium iodide staining based flow cytometry. It counts as functional, cell-based.
Series [6] has as its system A549. Kind of series: Induction of apoptosis in human A549 cells assessed as increase in PARP cleavage at 80 uM after 24 hrs by Western blot analysis. It counts as functional, cell-based. On the technique in general: Immunoblotting shows a protein as a band on a membrane.
The subject of series [7] is A549. Kind of series: Induction of apoptosis in human A549 cells assessed as cell death up to 40 uM after 24 hrs by Annexin V-FITC/propidium iodide staining based flow cytometry. The format is functional.
For series [8], the system named is A549. Kind of series: Cytotoxicity against human A549 cells at 1.56 to 100 uM after 72 hrs by MTT assay. It counts as functional, cell-based.
The target in series [9] is Tumour suppressor p53/oncoprotein Mdm2 (Homo sapiens) (UniProt P04637+Q00987). Kind of series: Inhibition of MDM2/P53 interaction in human A549 cells assessed as increase in p53 level at 10 to 20 uM after 24 hrs by Western blot analysis. It counts as cell-based.
Series [10] concerns A549. Kind of series: Induction of apoptosis in human A549 cells assessed as caspase-3 p17/19 active fragment generation at 40 uM after 24 hrs by Western blot analysis. The format is functional, cell-based.
The test system of series [11] is A549. Kind of series: Induction of necrosis in human A549 cells at >20 uM after 24 hrs by Annexin V-FITC/propidium iodide staining based flow cytometry. The format is functional, cell-based.
For series [12], the system named is A549. Kind of series: Induction of apoptosis in human A549 cells assessed as increase in PARP cleavage at 40 uM after 24 hrs by Western blot analysis. It counts as functional, cell-based.
Series [13] deals with A549. Kind of series: Induction of apoptosis in human A549 cells assessed as cell death at 80 uM after 24 hrs by Annexin V-FITC/propidium iodide staining based flow cytometry. The format is functional.
Series [14] has as its system A549. Kind of series: Induction of apoptosis in human A549 cells assessed as increase in necrotic cells at 40 to 80 uM incubated for 24 hrs by Annexin V-FITC/propidium iodide staining based flow cytometry relative to control. It counts as functional.
Series [15] in a line: Solubility of compound in water. It counts as physicochemical. Particulars: buffer.

Sequence of Tumour suppressor p53/oncoprotein Mdm2 (Homo sapiens) (P04637 whole entry, looked up, the tested form may be a part): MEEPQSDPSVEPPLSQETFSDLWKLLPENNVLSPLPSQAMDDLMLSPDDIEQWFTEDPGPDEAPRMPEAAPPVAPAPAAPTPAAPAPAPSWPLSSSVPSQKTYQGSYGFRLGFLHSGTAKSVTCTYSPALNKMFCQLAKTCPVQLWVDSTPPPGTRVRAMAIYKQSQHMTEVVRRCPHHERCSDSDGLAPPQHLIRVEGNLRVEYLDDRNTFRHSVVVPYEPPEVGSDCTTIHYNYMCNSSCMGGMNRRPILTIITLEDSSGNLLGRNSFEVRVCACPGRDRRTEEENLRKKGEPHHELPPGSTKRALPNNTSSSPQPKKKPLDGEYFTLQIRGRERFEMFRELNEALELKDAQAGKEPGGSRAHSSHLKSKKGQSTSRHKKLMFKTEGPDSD
Sequence of Tumour suppressor p53/oncoprotein Mdm2 (Homo sapiens) (Q00987 whole entry, looked up, the tested form may be a part): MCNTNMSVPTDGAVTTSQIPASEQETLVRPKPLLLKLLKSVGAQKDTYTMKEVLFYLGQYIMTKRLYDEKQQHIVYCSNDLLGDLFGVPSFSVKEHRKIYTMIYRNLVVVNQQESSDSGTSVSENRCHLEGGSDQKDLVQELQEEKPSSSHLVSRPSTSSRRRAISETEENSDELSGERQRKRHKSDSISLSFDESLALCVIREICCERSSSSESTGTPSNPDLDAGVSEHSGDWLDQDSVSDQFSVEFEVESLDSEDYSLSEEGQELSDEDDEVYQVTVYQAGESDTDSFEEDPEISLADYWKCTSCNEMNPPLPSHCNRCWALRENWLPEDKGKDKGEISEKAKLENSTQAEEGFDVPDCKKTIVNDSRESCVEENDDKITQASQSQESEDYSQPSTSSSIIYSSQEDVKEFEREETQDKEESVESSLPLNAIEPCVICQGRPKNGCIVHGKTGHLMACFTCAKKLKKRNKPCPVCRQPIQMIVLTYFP

With `CCOc1c(OC)cccc1C1=N[C@H](c2cccc(OC)c2OCC)[C@H](c2cccc(OC)c2OCC)N1`, the concentration for half-maximal inhibition (IC50) in the series with A549 [1] amounted to 24.3 µM.
`CCOc1ccc(C2=N[C@H](c3ccc(OCC)c(OC)c3)[C@H](c3ccc(OCC)c(OC)c3)N2)cc1OC`: the IC50 in the series with A549 [1] was 67.5 µM.
For the compound `COc1ccc(C2=N[C@H](c3ccc(OC)cc3)[C@H](c3ccc(OC)cc3)N2)cc1`, the IC50 with A549 [1] turned out to be 43.9 µM. The result in the series with A549 [2], in the series with A549 [3], with A549 [4], in the series with A549 [6] and in the series with A549 [7] was inactive. Further, the outcome in the series with A549 [5] was Active.
Turning to `COc1cccc(C2=N[C@H](c3cccc(OC)c3)[C@H](c3cccc(OC)c3)N2)c1`, in the series with A549 [1], the concentration for half-maximal inhibition (IC50) worked out at 64.3 µM.
Still for that read-out and setting: the result for `Oc1ccccc1C1=N[C@H](c2ccccc2O)[C@H](c2ccccc2O)N1` reads 311 µM.
`COc1ccc(C2=N[C@H](c3ccc(O)cc3)[C@H](c3ccc(O)cc3)N2)cc1`: the result with A549 [8] was inactive.
With `COc1cccc(C2=N[C@H](c3cccc(OC)c3OC)[C@H](c3cccc(OC)c3OC)N2)c1OC`, the IC50 in the series with A549 [1] was 16.2 µM. Besides, the inhibition entry in series [9] was “inactive”.
`CCOc1ccc(C2=N[C@H](c3ccc(OCC)cc3)[C@H](c3ccc(OCC)cc3)N2)cc1`: the IC50 with A549 [1] stood at 13.3 µM. The result with A549 [10], in the series with A549 [11], in the series with A549 [12], with A549 [4] and in the series with A549 [13] was Active. For the same compound, in the series on A549 [14], the Activity entry is listed as “<=70%”.
As for `COc1ccc(C2=N[C@H](c3ccc(OC)cc3OC)[C@H](c3ccc(OC)cc3OC)N2)c(OC)c1`, in the series on A549 [1], the half-inhibitory concentration (IC50) came to 9.32 µM. In addition, the outcome in the series with A549 [2], in the series on A549 [3], in the series with A549 [4], in the series with A549 [6] and in the series on A549 [7] was inactive. Moreover, the outcome in the series on A549 [5] was Active.
With `COc1cc(C2=N[C@H](c3cc(OC)c(OC)c(OC)c3)[C@H](c3cc(OC)c(OC)c(OC)c3)N2)cc(OC)c1OC`, the result with A549 [8] was inactive.
Regarding `Fc1ccc(C2=N[C@H](c3ccc(F)cc3)[C@H](c3ccc(F)cc3)N2)cc1`, the 50% inhibitory concentration (IC50) in the series with A549 [1] was 108 µM.
The same measure, in the same setting: the same measure for `Clc1ccc(C2=N[C@H](c3ccc(Cl)c(Cl)c3)[C@H](c3ccc(Cl)c(Cl)c3)N2)cc1Cl`: 13.7 µM; for `COc1ccccc1C1=N[C@H](c2ccccc2OC)[C@H](c2ccccc2OC)N1`: 27.4 µM.
As to `Oc1ccc(C2=N[C@H](c3ccc(O)cc3)[C@H](c3ccc(O)cc3)N2)cc1`, in the series on A549 [8], the result was inactive.
In the case of `Brc1ccc(C2=N[C@H](c3ccc(Br)cc3)[C@H](c3ccc(Br)cc3)N2)cc1`, the IC50 in the series with A549 [1] turned out to be 9.05 µM. In addition, the solubility result in [15] is “Insoluble”.
For `Clc1ccccc1C1=N[C@H](c2ccccc2Cl)[C@H](c2ccccc2Cl)N1`, in that order: 10.7 µM and “Insoluble”.
Turning to `Clc1ccc(C2=N[C@H](c3ccc(Cl)cc3)[C@H](c3ccc(Cl)cc3)N2)cc1`, the IC50 in the series with A549 [1] was 20.2 µM. Besides, the result in the series on A549 [10], in the series with A549 [11], with A549 [12], with A549 [4] and in the series with A549 [13] was Active. Further, the Activity result with A549 [14] is reported as “<=70%”.
In the case of `Clc1ccc(C2=N[C@H](c3ccc(Cl)cc3Cl)[C@H](c3ccc(Cl)cc3Cl)N2)c(Cl)c1`, in the series on A549 [1], the IC50 worked out at 164 µM.
With `COc1ccc(OC)c(C2=N[C@H](c3cc(OC)ccc3OC)[C@H](c3cc(OC)ccc3OC)N2)c1`, in the series on A549 [1], the concentration for half-maximal inhibition (IC50) was 21.4 µM. The inhibition result in series [9] was “inactive”.
As to `Oc1ccc(O)c(C2=N[C@H](c3cc(O)ccc3O)[C@H](c3cc(O)ccc3O)N2)c1`, in the series on A549 [8], the result was inactive.
Turning to `COc1ccc(C2=N[C@H](c3ccc(OC)c(OC)c3)[C@H](c3ccc(OC)c(OC)c3)N2)cc1OC`, the concentration for half-maximal inhibition (IC50) in the series with A549 [1] came to 84.7 µM.

Values taken from ChEMBL document CHEMBL4433238, “2,4,5-Tris(alkoxyaryl)imidazoline derivatives as potent scaffold for novel p53-MDM2 interaction inhibitors: Design, synthesis, and biological evaluation” (Bioorg Med Chem Lett, 2019).
